This note sets out measurements from ChEMBL document CHEMBL1122620, “Inhibition of renin by substrate analogue inhibitors containing the olefinic amino acid 5(S)-amino-7-methyl-3(E)-octenoic acid” (J Med Chem, 1984).

Where a SMILES comes first, the peptide text is derived from it.

In one test the target is T1, Renin (Homo sapiens, UniProt P00797).
T1 sequence (P00797 whole entry): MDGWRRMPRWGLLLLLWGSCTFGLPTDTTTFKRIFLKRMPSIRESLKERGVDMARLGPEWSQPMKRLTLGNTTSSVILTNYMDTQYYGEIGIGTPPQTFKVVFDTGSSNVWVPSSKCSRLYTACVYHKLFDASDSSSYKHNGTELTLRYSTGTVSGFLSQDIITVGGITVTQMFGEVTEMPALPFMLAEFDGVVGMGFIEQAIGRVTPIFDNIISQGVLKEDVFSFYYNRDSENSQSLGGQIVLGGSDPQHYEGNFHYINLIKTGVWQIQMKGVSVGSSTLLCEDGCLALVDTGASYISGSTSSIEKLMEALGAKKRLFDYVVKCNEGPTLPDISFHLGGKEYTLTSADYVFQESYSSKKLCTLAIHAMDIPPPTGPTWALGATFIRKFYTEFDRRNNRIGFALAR
In words: Compound was evaluated for competitive Renin inhibitory activity against human amniotic renin; Competitive.

The target in a further test is Renin (Sus scrofa). In words: Compound was evaluated for Non-competitive Renin inhibitory activity against hog kidney renin; Non competitive.

Turning to `COC(=O)[C@H](Cc1ccccc1)NC(=O)[C@@H](NC(=O)CNC(=O)[C@@H](N)CC(C)C)C(C)C` (H-LGVF-OMe), the Ki (commonly the dissociation constant of the complex between target and ligand, obtained from inhibition or displacement) on Renin came out at 1000 µM.

`COC(=O)[C@H](Cc1ccccc1)NC(=O)[C@@H](NC(=O)[C@H](CC(C)C)NC(=O)[C@@H](N)CC(C)C)C(C)C` (H-LLVF-OMe) registered a Ki at Renin (Sus scrofa) of 500 µM.
